Laboratory results reported in paper PMC11111955, “Safety and efficacy evaluation of halicin as an effective drug for inhibiting intestinal infections” (Frontiers in Pharmacology, 2024).
In brackets after ≈: the same amount, converted by molar mass. Entries after “also recorded” stand apart in the source; their conditions may differ. Like-named read-outs stand apart in the source and are kept apart here.

Legend:
S. aureus (ATCC 29213) [1] = assay: Minimum inhibitory concentration (MIC); type: cell-based, Staphylococcus aureus
Procedure: (§1) The test strains were inoculated on the corresponding solid medium and incubated overnight at 37°C. A single colony was picked from the medium and inoculated into Luria Broth (LB), and then incubated overnight at 37°C with shaking at 220 rpm. The bacterial suspension was diluted to 0.5 McFarland turbidity with Mueller Hinton broth (MHB), and then dilute 100 times for later use. Halicin was added to the 96-well plate, and diluted it to concentrations of 128, 64, 32, 16, 8, 4, 2, 1, 0.5, 0.25, 0.125, and 0 μg/mL by gradient. The 96-well plate was incubated at 37°C for 16 h, followed by observing and recording the results. The MIC was determined as the concentration at which there was no visible colony growth was observed.

Salmonella (CVCC 3377) [2] = assay: Growth kinetics curve; details: 1/2 × to 4 × MIC
MRSA (BNCC 337371) = assay: Minimum inhibitory concentration (MIC); type: cell-based, Staphylococcus aureus
MRSA (ATCC 43300) = assay: Minimum inhibitory concentration (MIC); type: cell-based, Staphylococcus aureus
[3] = tested on: clinical isolates of E. coli strains; assay: MIC against clinical isolates; type: cell-based, Escherichia coli
ICR mice = assay: Acute oral toxicity test in ICR mice
[4] = tested on: S. pneumoniae (ATCC 49619); assay: Minimum inhibitory concentration (MIC); type: cell-based, Streptococcus pneumoniae
Procedure: as §1

[5] = tested on: C. perfringens (ATCC 13124); type: cell-based, Clostridium perfringens
Salmonella (CVCC 3377) [6] = assay: Minimum inhibitory concentration (MIC); type: cell-based
E. coli (ATCC 25922) [7] = assay: Multipassage resistance study (continuous induction); details: after multipassage induction
[8] = tested on: clinical isolates of C. perfringens strains; type: cell-based, Clostridium perfringens
S. aureus (ATCC 29213) [9] = assay: Multipassage resistance study (continuous induction); details: after 90 days of continuous exposure to 0.5 × MIC
[10] = tested on: Clostridium perfringens Type A; type: in vivo, BALB/c mice; details: for survival of infected mice: 1 h after C. perfringens challenge
E. coli (ATCC 25922) [11] = assay: Minimum inhibitory concentration (MIC); type: cell-based, Escherichia coli
Procedure: as §1

[12] = tested on: other bacteria (except Bacillus subtilis and Pseudomonas aeruginosa); assay: MIC, panel of Table 1 as summarised in the text; type: cell-based; details: bacteria of Table 1 except Bacillus subtilis and Pseudomonas aeruginosa
[13] = tested on: Klebsiella pneumoniae (ATCC 4352); assay: Growth kinetics curve; type: cell-based; details: 1/2 × to 4 × MIC
S. aureus (ATCC 29213) [14] = assay: Growth kinetics curve; type: cell-based, Staphylococcus aureus
TA97a = assay: Ames test; type: cell-based, Salmonella typhimurium
Procedure: (§2) The experiments were performed in triplicate.

[15] = tested on: R. anatipestifer (ATCC 11845); assay: Minimum inhibitory concentration (MIC); type: cell-based, Riemerella anatipestifer
B. subtilis (ATCC 66333) = assay: Minimum inhibitory concentration (MIC); type: cell-based, Bacillus subtilis
Procedure: as §1

E. faecalis (ATCC 29212) = assay: Minimum inhibitory concentration (MIC); type: cell-based, Enterococcus faecalis
Procedure: as §1

WP2uvApKM101 = assay: Ames test; type: cell-based, Escherichia coli
Procedure: as §2

Structure (SMILES): Nc1nnc(Sc2ncc([N+](=O)[O-])s2)s1 [halicin]
- MIC (S. aureus (ATCC 29213) [1]): 8 µg/mL (≈ 30.6 µM)
- growth in growth kinetics curve assay (Salmonella (CVCC 3377) [2]): completely inhibited
- MIC (MRSA (BNCC 337371)): 8 µg/mL (≈ 30.6 µM)
- MIC (MRSA (ATCC 43300)): 8 µg/mL (≈ 30.6 µM)
- MIC [3]: 8 µg/mL (≈ 30.6 µM)
- MIC ([3]; clinical isolate S015, Escherichia coli 1505): 16 µg/mL (≈ 61.2 µM)
- MIC ([3]; clinical isolate S016, Escherichia coli 2101): 16 µg/mL (≈ 61.2 µM)
- MIC ([3]; clinical isolate S017, Escherichia coli 1104): 16 µg/mL (≈ 61.2 µM)
- MIC ([3]; clinical isolate S018, Escherichia coli 1103): 16 µg/mL (≈ 61.2 µM)
- MIC ([3]; clinical isolate S019, Escherichia coli 1102): 16 µg/mL (≈ 61.2 µM)
- MIC ([3]; clinical isolate S020, Escherichia coli 1204): 16 µg/mL (≈ 61.2 µM)
- MIC ([3]; clinical isolate S021, Escherichia coli 1508): 16 µg/mL (≈ 61.2 µM)
- MIC ([3]; clinical isolate S022, Escherichia coli 1302): 16 µg/mL (≈ 61.2 µM)
- MIC ([3]; clinical isolate S023, Escherichia coli 1301): 16 µg/mL (≈ 61.2 µM)
- MIC ([3]; clinical isolate S024, Escherichia coli 1213): 16 µg/mL (≈ 61.2 µM)
- MIC ([3]; clinical isolate S025, Escherichia coli 1111): 8 µg/mL (≈ 30.6 µM)
- MIC ([3]; clinical isolate S026, Escherichia coli 1123): 8 µg/mL (≈ 30.6 µM)
- MIC ([3]; clinical isolate S034, Escherichia coli 1115): 8 µg/mL (≈ 30.6 µM)
- MIC ([3]; clinical isolate S035, Escherichia coli 1114): 8 µg/mL (≈ 30.6 µM)
- MIC ([3]; clinical isolate S036, Escherichia coli 1113): 8 µg/mL (≈ 30.6 µM)
- MIC ([3]; clinical isolate S037, Escherichia coli 1110): 8 µg/mL (≈ 30.6 µM)
- MIC ([3]; clinical isolate S038, Escherichia coli 1108): 8 µg/mL (≈ 30.6 µM)
- MIC ([3]; clinical isolate S039, Escherichia coli 1105): 8 µg/mL (≈ 30.6 µM)
- MIC ([3]; clinical isolate S040, Escherichia coli 230202): 8 µg/mL (≈ 30.6 µM)
- MIC ([3]; clinical isolate S041, Escherichia coli 230203): 8 µg/mL (≈ 30.6 µM)
- MIC ([3]; clinical isolate S042, Escherichia coli 230210): 8 µg/mL (≈ 30.6 µM)
- MIC ([3]; clinical isolate S043, Escherichia coli 0807): 32 µg/mL (≈ 122 µM)
- MIC ([3]; clinical isolate S044, Escherichia coli 1122): 4 µg/mL (≈ 15.3 µM)
- MIC ([3]; clinical isolate S045, Escherichia coli 0906): 4 µg/mL (≈ 15.3 µM)
- MIC ([3]; clinical isolate S046, Escherichia coli 0813): 4 µg/mL (≈ 15.3 µM)
- MIC ([3]; clinical isolate S047, Escherichia coli 230209): 4 µg/mL (≈ 15.3 µM)
- MIC ([3]; clinical isolate S048, Escherichia coli 230211): 4 µg/mL (≈ 15.3 µM)
- mortality (ICR mice; 500 mg/kg oral): none died
- survival rate at 7 days (ICR mice; 1,000 mg/kg oral): 80%
- 7-day survival rate (ICR mice; 4,000 mg/kg oral): 10%
- LD50 (ICR mice; ICR mice, oral gavage, 7 days observation): 2018.3 mg/kg
- acute toxicity classification (ICR mice; based on LD50): low-toxicity compound
- MIC [4]: 0.5 µg/mL (≈ 1.91 µM)
- MIC [5]: 8 µg/mL (≈ 30.6 µM)
- MIC (Salmonella (CVCC 3377) [6]): 8 µg/mL (≈ 30.6 µM)
- MIC of ECR (E. coli ATCC 25922 resistant strains) (E. coli (ATCC 25922) [7]): 32 µg/mL
- MIC ([8]; clinical isolate S049, Clostridium perfringens Cp001): 4 µg/mL (≈ 15.3 µM)
- MIC ([8]; clinical isolate S050, Clostridium perfringens Cp002): 4 µg/mL (≈ 15.3 µM)
- MIC ([8]; clinical isolate S051, Clostridium perfringens Cp003): 4 µg/mL (≈ 15.3 µM)
- MIC ([8]; clinical isolate S052, Clostridium perfringens Cp004): 8 µg/mL (≈ 30.6 µM)
- MIC ([8]; clinical isolate S053, Clostridium perfringens Cp005): 8 µg/mL (≈ 30.6 µM)
- MIC ([8]; clinical isolate S054, Clostridium perfringens Cp006): 8 µg/mL (≈ 30.6 µM)
- MIC ([8]; clinical isolate S055, Clostridium perfringens Cp007): 16 µg/mL (≈ 61.2 µM)
- MIC ([8]; clinical isolate S056, Clostridium perfringens Cp008): 0.25 µg/mL (≈ 0.957 µM)
- MIC ([8]; clinical isolate S057, Clostridium perfringens Cp009): 0.25 µg/mL (≈ 0.957 µM)
- MIC ([8]; clinical isolate S058, Clostridium perfringens Cp010): 0.25 µg/mL (≈ 0.957 µM)
- MIC of SAR (S. aureus ATCC 29213 resistant strains) (S. aureus (ATCC 29213) [9]): 64 µg/mL
- survival of infected mice ([10]; 5 mg/kg halicin): more than 80%
- survival of infected mice ([10]; 10 mg/kg halicin): no deaths occurred; also recorded: All mice in the 10 mg/kg halicin group survived
- therapeutic effect in infected mice ([10]; dose of 5 mg/kg): good therapeutic effects
- efficacy compared with 10 mg/kg metronidazole ([10]; intestinal anaerobic bacteria infection in mice): much more effective
- MIC (E. coli (ATCC 25922) [11]): 8 µg/mL (≈ 30.6 µM)
- MIC against other bacteria [12]: less than 8 μg/mL
- growth in growth kinetics curve assay [13]: completely inhibited
- growth in growth kinetics curve assay (S. aureus (ATCC 29213) [14]; 1 × MIC): started to grow rapidly after 16 h
- growth in growth kinetics curve assay (S. aureus (ATCC 29213) [14]; 4 × MIC, after 20 h): still proliferated significantly
- type of antibacterial action (S. aureus (ATCC 29213) [14]; against S. aureus): bacteriostatic rather than a bactericidal agent
- Ames test bacterial counts (TA97a; +S9, 5.6 μg/plate): 145 ± 5.7
- Ames test bacterial counts (TA97a; +S9, 11.2 μg/plate): 151 ± 11.3
- Ames test bacterial counts (TA97a; +S9, 22.5 μg/plate): 31 ± 8.5
- Ames test bacterial counts (TA97a; +S9, 45 μg/plate): 0 ± 0
- Ames test bacterial counts (TA97a; -S9, 5.6 μg/plate): 82 ± 14.1
- Ames test bacterial counts (TA97a; -S9, 11.2 μg/plate): 115 ± 8.5
- Ames test bacterial counts (TA97a; -S9, 22.5 μg/plate): 0 ± 0
- Ames test bacterial counts (TA97a; -S9, 45 μg/plate): 0 ± 0
- MIC ([15]; R. anatipestife (ATCC 11845), second listing): 8 µg/mL (≈ 30.6 µM)
- MIC ([15]; R. anatipestifer (ATCC 11845), first listing): 4 µg/mL (≈ 15.3 µM)
- MIC (B. subtilis (ATCC 66333)): 128 µg/mL (≈ 490 µM)
- MIC (E. faecalis (ATCC 29212)): 4 µg/mL (≈ 15.3 µM)
- Ames test bacterial counts (WP2uvApKM101; WP2uvApKM101, +S9, 5.6 μg/plate): 183 ± 15.6
- Ames test bacterial counts (WP2uvApKM101; WP2uvApKM101, +S9, 11.2 μg/plate): 168 ± 19.8
- Ames test bacterial counts (WP2uvApKM101; WP2uvApKM101, +S9, 22.5 μg/plate): 12 ± 5.7
- Ames test bacterial counts (WP2uvApKM101; WP2uvApKM101, +S9, 45 μg/plate): 0 ± 0
- Ames test bacterial counts (WP2uvApKM101; WP2uvApKM101, -S9, 5.6 μg/plate): 169 ± 15.6
- Ames test bacterial counts (WP2uvApKM101; WP2uvApKM101, -S9, 11.2 μg/plate): 135 ± 22.6
- Ames test bacterial counts (WP2uvApKM101; WP2uvApKM101, -S9, 22.5 μg/plate): 75 ± 8.5
- Ames test bacterial counts (WP2uvApKM101; WP2uvApKM101, -S9, 45 μg/plate): 0 ± 0
